Measured values reported in publication PMC8913687, “Novel indolic AMPK modulators induce vasodilatation through activation of the AMPK–eNOS–NO pathway” (Scientific Reports, 2022).
Like-named read-outs stand apart in the source and are kept apart here.

Assays:
AMPKα1β1γ1 [1] = target: T1, AMPKα1β1γ1 (Homo sapiens, UniProt Q13131+Q9Y478); test: ADP-Glo kinase assay with SAMS peptide, Lineweaver-Burk kinetics vs ATP; binding also shown by SPR ([…] RU at […]); type: biochemical
T1 construct: gene PRKAA1; recombinant AMPK isoform α1β1γ1; with AMPK β1 (PRKAB1) and γ1 (PRKAG1)

AMPKα1β1γ1 [2] = target: T1, AMPKα1β1γ1; test: SPR at […]; also […] inhibition at […] in ADP-Glo kinase assay; type: binding
AMPKα1β1γ1 [3] = target: T1, AMPKα1β1γ1; test: as above; type: binding; remark: listed apart in the source
AMPKα1β1γ1 [4] = target: T1, AMPKα1β1γ1; test: SPR, […] series and competition with […] ATP; type: binding

T1 sequence (Q13131 whole entry, canonical isoform): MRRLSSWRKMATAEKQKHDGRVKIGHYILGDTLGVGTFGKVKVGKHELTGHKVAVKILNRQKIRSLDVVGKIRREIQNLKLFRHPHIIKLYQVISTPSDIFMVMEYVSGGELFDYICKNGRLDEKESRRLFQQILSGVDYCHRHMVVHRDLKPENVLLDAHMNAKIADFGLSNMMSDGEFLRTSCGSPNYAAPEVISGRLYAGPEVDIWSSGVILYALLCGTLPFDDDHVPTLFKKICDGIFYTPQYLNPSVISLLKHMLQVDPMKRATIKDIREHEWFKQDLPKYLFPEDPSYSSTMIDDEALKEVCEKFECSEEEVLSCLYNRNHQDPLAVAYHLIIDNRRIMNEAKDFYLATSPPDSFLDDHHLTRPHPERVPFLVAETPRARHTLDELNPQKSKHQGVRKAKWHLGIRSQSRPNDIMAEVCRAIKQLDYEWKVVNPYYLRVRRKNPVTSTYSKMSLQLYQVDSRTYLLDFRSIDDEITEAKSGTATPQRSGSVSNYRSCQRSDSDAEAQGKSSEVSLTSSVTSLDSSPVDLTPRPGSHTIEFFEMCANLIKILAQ
T1 sequence (Q9Y478 2-270): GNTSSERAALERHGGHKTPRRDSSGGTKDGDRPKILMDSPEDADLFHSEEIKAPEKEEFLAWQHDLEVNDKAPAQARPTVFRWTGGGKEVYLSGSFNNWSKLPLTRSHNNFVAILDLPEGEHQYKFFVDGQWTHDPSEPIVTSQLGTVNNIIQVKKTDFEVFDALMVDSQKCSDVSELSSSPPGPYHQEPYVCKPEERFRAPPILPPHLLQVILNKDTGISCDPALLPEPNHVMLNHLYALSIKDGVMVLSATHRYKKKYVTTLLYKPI
T1 sequence (P54619 whole entry partner, canonical isoform): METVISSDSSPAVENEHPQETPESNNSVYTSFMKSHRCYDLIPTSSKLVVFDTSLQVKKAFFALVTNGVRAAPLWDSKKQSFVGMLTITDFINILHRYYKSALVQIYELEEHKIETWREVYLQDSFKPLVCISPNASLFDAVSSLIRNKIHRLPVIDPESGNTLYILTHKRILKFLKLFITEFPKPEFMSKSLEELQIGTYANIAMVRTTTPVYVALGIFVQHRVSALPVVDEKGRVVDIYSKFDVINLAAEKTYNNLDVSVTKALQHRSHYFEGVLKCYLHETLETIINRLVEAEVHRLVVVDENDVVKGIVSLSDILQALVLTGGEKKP

O=C(O)c1[nH]c2ccccc2c1-c1ccc(OCc2ccccc2)cc1 [IND6, 3-(4-(Benzyloxy)phenyl)-1H-indole-2-carboxylic acid]
Ki (AMPKα1β1γ1 [1]): 6.9 µM

O=C(O)c1[nH]c2ccccc2c1-c1ccc(-c2ccccc2)cc1 [IND7]
Binding 100 μM (RU)^b / AMPK α1:β1:γ1 (AMPKα1β1γ1 [2]): 13.6 RU

O=C(O)c1[nH]c2ccccc2c1-c1ccc(Oc2ccccc2)cc1 [IND8]
Binding 100 μM (RU)^b / AMPK α1:β1:γ1 (AMPKα1β1γ1 [3]): 14.6 RU

CNC(=O)c1ccccc1Oc1nc(Nc2cc(OC)c(OC)c(OC)c2)ncc1Br [SBI-0206965]
SPR, 10-100 μM series and competition with 200 μM ATP (AMPKα1β1γ1 [4]): sensorgrams showed a progressive increase in the binding, which was much larger for SBI-0206965
